USRE48461E1, “Modulation of androgen receptor expression” (Ionis Pharmaceuticals, Inc., priority 2012, dated 2021)
Oligonucleotides are written 5' to 3', each unit as a sugar letter and its base; * is a phosphorothioate linkage, no mark a phosphodiester; rarer units and linkages stand in square brackets, end groups in braces. Plain capitals give the bases only. e = 2'-O-(2-methoxyethyl) (MOE); k = constrained ethyl (cEt); [5mC] = 5-methylcytosine; d = 2'-deoxy (DNA)

Tests used:
[1] = tested on: AR mRNA; assay: Antisense inhibition of human AR in HuVEC cells, single concentration (electroporation, qRT-PCR RTS3559); format: cell-based; details: 250 nM ASO, ~24 h, Table 7
In short: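 HuVEC cells electroporated with antisense oligonucleotides at a single concentration. AR mRNA quantified by qRT-PCR using human primer-probe set RTS3559 and normalised to total RNA content by RIBOGREEN.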

[2] = tested on: AR mRNA; assay: Dose-dependent antisense inhibition of human AR in HuVEC cells (electroporation, qRT-PCR RTS3559, IC50); format: cell-based; details: HuVEC, ~16 h
In short: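 HuVEC cells dosed with antisense oligonucleotides by electroporation and treated approximately 16 hours. AR mRNA quantified by real-time qPCR with primer probe set RTS3559 and normalised to total RNA by RIBOGREEN; IC50 from dose-response.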

[3] = tested on: AR mRNA; assay: AR mRNA levels in LMR20 cells (with/without DHT or R1881); format: cell-based, human; details: LMR20 cells; for AR mRNA levels (% baseline value) after treatment with DHT: DHT 10 nM 72 hrs; for AR mRNA levels (% baseline value) after treatment with R1881: R1881 10 nM 72 hrs; for AR mRNA levels (% baseline value) of cells without AR agonist treatment: no AR agonist
Description: (§1) LMR20 cells were plated at 1,500 cells per well in phenol red-free medium with CSS.

[4] = tested on: prostate-specific antigen (PSA) mRNA; assay: PSA mRNA levels in LMR20 cells; format: cell-based, human; details: LMR20 cells; for PSA mRNA levels (% baseline value) after treatment with DHT: DHT 10 nM 72 hrs; for PSA mRNA levels (% baseline value) after treatment with R1881: R1881 10 nM 72 hrs; for PSA mRNA levels (% baseline value) of cells without AR agonist treatment: no AR agonist
Description: LMR20 cells were plated at 1,500 cells per well in phenol red-free medium with CSS. […] Results are presented in Tables 43-45 as mRNA levels expressed as a percentage of the baseline values. mRNA levels may be lowered or increased after treatment.

[5] = tested on: TMPRSS2 mRNA; assay: TMPRSS2 mRNA levels in LMR20 cells; format: cell-based, human; details: LMR20 cells; for TMPRSS2 mRNA levels (% baseline value) after treatment with DHT: DHT 10 nM 72 hrs; for TMPRSS2 mRNA levels (% baseline value) after treatment with R1881: R1881 10 nM 72 hrs; for TMPRSS2 mRNA levels (% baseline value) of cells without AR agonist treatment: no AR agonist
Description: as §1

[6] = tested on: AR mRNA; assay: AR mRNA in LnCaP cells by free uptake (hAR_LTS00943); format: cell-based, human; details: 24 hrs
Description: Cells were plated at a concentration of 4,000 cells/well in 96-well plates. ISIS oligonucleotides, specified in Table 68, were added individually at 0.02 μM, 0.10 μM, 0.50 μM, 2.50 μM, or 10.00 μM. After an incubation period of 24 hrs, mRNA levels were measured using primer probe set hAR_LTS00943.

[7] = tested on: AR mRNA; assay: AR mRNA in liver, heart, skeletal muscle, kidney, prostate of cynomolgus monkeys; format: in vivo; details: cynomolgus monkey, 40 mg/kg subcutaneously
Description: Cynomolgus monkeys were treated with ISIS antisense oligonucleotides selected from studies described above. Antisense oligonucleotide efficacy and tolerability were evaluated. The human antisense oligonucleotides tested are cross-reactive with the rhesus genomic sequence (GENBANK Accession No. NW_001218131.1 truncated from nucleotides 134001 to 308000 and designated herein as SEQ ID NO: 189). The target start site and target region of each oligonucleotide to SEQ ID NO: 189, as well as the details of their chemistry and sequence, is presented in Table 133.
RNA was extracted from liver, heart, skeletal muscle, kidney, and prostate tissues for real-time PCR analysis of AR using primer probe set RTS3559. The results were normalized to RIBOGREEN®. Results are presented as percent inhibition of AR mRNA, relative to PBS control.

Substance: 569236 (antisense eT*kG*kA*kT*dT*dT*dA*dA*dT*dG*dG*kT*kT*kG*e[5mC]*eA) [compound 569236]
- % inhibition [1]: 66%
- percent inhibition of AR ([2]; 31.25 nM, Table 8): 17%
- percent inhibition of AR ([2]; 62.5 nM, Table 8): 39%
- percent inhibition of AR ([2]; 62.5 nM, Table 10): 4%
- percent inhibition of AR ([2]; 125.0 nM, Table 8): 54%
- percent inhibition of AR ([2]; 125.0 nM, Table 10): 35%
- percent inhibition of AR ([2]; 500.0 nM, Table 8): 84%
- percent inhibition of AR ([2]; 500.0 nM, Table 10): 68%
- percent inhibition of AR ([2]; 1000.0 nM, Table 8): 92%
- percent inhibition of AR ([2]; 1000.0 nM, Table 10): 88%
- IC50 ([2]; Table 8): 110 nM
- IC50 ([2]; Table 10): 252 nM
- AR mRNA levels (% baseline value) after treatment with DHT ([3]; ASO 0.04 μM): 94 % baseline value
- AR mRNA levels (% baseline value) after treatment with DHT ([3]; ASO 0.20 μM): 77 % baseline value
- AR mRNA levels (% baseline value) after treatment with DHT ([3]; ASO 1.0 μM): 44 % baseline value
- AR mRNA levels (% baseline value) after treatment with DHT ([3]; ASO 5.0 μM): 34 % baseline value
- AR mRNA levels (% baseline value) after treatment with R1881 ([3]; ASO 0.04 μM): 89 % baseline value
- AR mRNA levels (% baseline value) after treatment with R1881 ([3]; ASO 0.20 μM): 80 % baseline value
- AR mRNA levels (% baseline value) after treatment with R1881 ([3]; ASO 1.0 μM): 44 % baseline value
- AR mRNA levels (% baseline value) after treatment with R1881 ([3]; ASO 5.0 μM): 37 % baseline value
- AR mRNA levels (% baseline value) of cells without AR agonist treatment ([3]; ASO 0.04 μM): 104 % baseline value
- AR mRNA levels (% baseline value) of cells without AR agonist treatment ([3]; ASO 0.20 μM): 87 % baseline value
- AR mRNA levels (% baseline value) of cells without AR agonist treatment ([3]; ASO 1.0 μM): 42 % baseline value
- AR mRNA levels (% baseline value) of cells without AR agonist treatment ([3]; ASO 5.0 μM): 27 % baseline value
- PSA mRNA levels (% baseline value) after treatment with DHT ([4]; ASO 0.04 μM): 108 % baseline value
- PSA mRNA levels (% baseline value) after treatment with DHT ([4]; ASO 0.20 μM): 79 % baseline value
- PSA mRNA levels (% baseline value) after treatment with DHT ([4]; ASO 1.0 μM): 46 % baseline value
- PSA mRNA levels (% baseline value) after treatment with DHT ([4]; ASO 5.0 μM): 46 % baseline value
- PSA mRNA levels (% baseline value) after treatment with R1881 ([4]; ASO 0.04 μM): 90 % baseline value
- PSA mRNA levels (% baseline value) after treatment with R1881 ([4]; ASO 0.20 μM): 90 % baseline value
- PSA mRNA levels (% baseline value) after treatment with R1881 ([4]; ASO 1.0 μM): 57 % baseline value
- PSA mRNA levels (% baseline value) after treatment with R1881 ([4]; ASO 5.0 μM): 41 % baseline value
- PSA mRNA levels (% baseline value) of cells without AR agonist treatment ([4]; ASO 0.04 μM): 122 % baseline value
- PSA mRNA levels (% baseline value) of cells without AR agonist treatment ([4]; ASO 0.20 μM): 90 % baseline value
- PSA mRNA levels (% baseline value) of cells without AR agonist treatment ([4]; ASO 1.0 μM): 78 % baseline value
- PSA mRNA levels (% baseline value) of cells without AR agonist treatment ([4]; ASO 5.0 μM): 73 % baseline value
- TMPRSS2 mRNA levels (% baseline value) after treatment with DHT ([5]; ASO 0.04 μM): 113 % baseline value
- TMPRSS2 mRNA levels (% baseline value) after treatment with DHT ([5]; ASO 0.20 μM): 123 % baseline value
- TMPRSS2 mRNA levels (% baseline value) after treatment with DHT ([5]; ASO 1.0 μM): 111 % baseline value
- TMPRSS2 mRNA levels (% baseline value) after treatment with DHT ([5]; ASO 5.0 μM): 110 % baseline value
- TMPRSS2 mRNA levels (% baseline value) after treatment with R1881 ([5]; ASO 0.04 μM): 126 % baseline value
- TMPRSS2 mRNA levels (% baseline value) after treatment with R1881 ([5]; ASO 0.20 μM): 131 % baseline value
- TMPRSS2 mRNA levels (% baseline value) after treatment with R1881 ([5]; ASO 1.0 μM): 98 % baseline value
- TMPRSS2 mRNA levels (% baseline value) after treatment with R1881 ([5]; ASO 5.0 μM): 95 % baseline value
- TMPRSS2 mRNA levels (% baseline value) of cells without AR agonist treatment ([5]; ASO 0.04 μM): 96 % baseline value
- TMPRSS2 mRNA levels (% baseline value) of cells without AR agonist treatment ([5]; ASO 0.20 μM): 81 % baseline value
- TMPRSS2 mRNA levels (% baseline value) of cells without AR agonist treatment ([5]; ASO 1.0 μM): 59 % baseline value
- TMPRSS2 mRNA levels (% baseline value) of cells without AR agonist treatment ([5]; ASO 5.0 μM): 48 % baseline value
- Percent inhibition of AR mRNA ([6]; 0.02 μM): 3%
- Percent inhibition of AR mRNA ([6]; 0.1 μM): 2%
- Percent inhibition of AR mRNA ([6]; 0.5 μM): 21%
- Percent inhibition of AR mRNA ([6]; 10 μM): 70%

Substance: 579671 (antisense eT*kT*kG*eA*kT*kT*dT*dA*dA*dT*dG*dG*dT*kT*kG*k[5mC]) [compound 579671]
- percent inhibition of AR ([2]; 62.5 nM, Table 11): 6%
- percent inhibition of AR ([2]; 125.0 nM, Table 11): 40%
- percent inhibition of AR ([2]; 500.0 nM, Table 11): 57%
- percent inhibition of AR ([2]; 1000.0 nM, Table 11): 77%
- IC50 ([2]; Table 11): 288 nM
- Percent inhibition of AR mRNA ([6]; 0.02 μM): 15%
- Percent inhibition of AR mRNA ([6]; 0.1 μM): 0%
- Percent inhibition of AR mRNA ([6]; 0.5 μM): 19%
- Percent inhibition of AR mRNA ([6]; 10 μM): 71%
- Percent Inhibition of AR mRNA relative to the PBS control, Heart ([7]; weeks 1 to 6, Heart): 24%
- Percent Inhibition of AR mRNA relative to the PBS control, Kidney ([7]; weeks 1 to 6, Kidney): 53%
- Percent Inhibition of AR mRNA relative to the PBS control, Liver ([7]; weeks 1 to 6, Liver): 33%
- Percent Inhibition of AR mRNA relative to the PBS control, Skeletal Muscle ([7]; weeks 1 to 6, Skeletal Muscle): 31%
